Literature values, collected in the CATMoS acute toxicity set (Mansouri et al. 2021).
Several values for one entry are separate records, joined by “and”; a condition that tells them apart may be missing. Equal values may be shown once.

Test: rat acute oral toxicity
Details: in vivo

SMILES | LD50
CN[C@@H]1[C@H](O[C@H]2[C@H](O[C@H]3[C@H](O)[C@@H](O)[C@H](NC(=N)N)[C@@H](O)[C@@H]3NC(=N)N)O[C@@H](C)[C@]2(O)C=O)O[C@@H](CO)[C@H](O)[C@H]1O | 9000 mg/kg
CS(=O)CC(=O)c1ccccn1 (stereo unspecified) | 6550 mg/kg
CC(C)(C)/N=C(\NC#N)Nc1cccnc1 | 278 mg/kg
CCC(C)OC(CBr)c1ccccc1 (stereo unspecified) | 250 mg/kg
OP(OCCCl)OCCCl | 260 mg/kg
CS(=O)C(C)(C)CO (stereo unspecified) | 11300 mg/kg
Oc1ccc(NCc2ccccc2)cc1 | 400 mg/kg
CCC1(CC)C(=O)C=CN(CN2CCOCC2)C1=O | 1950 mg/kg
CCCN(CCC)S(=O)(=O)CCNC(=O)N(CCCl)N=O | 250 mg/kg
Cc1nc(NCc2ccccc2)c2cc[nH]c2n1 | 80 mg/kg
Cc1ccc(NC2=NCCN2)c(Cl)c1 | 420 mg/kg
CCCCNc1ccc2c(c1)C(=O)N(CCN(CC)CC)C2=O | 580 mg/kg
C=CCNCC=C | 578 mg/kg
CCCC(=O)CCC | 3730 mg/kg
CCOC(=O)CC(=O)CCl | 200 mg/kg
COc1cc(C(C)=O)ccc1OCCCCN1CCN(c2ccccc2)CC1 | 573 mg/kg
CCCCCCCCCCCC[N+](C)(C)Cc1ccccc1 | 400 mg/kg and 230 mg/kg
CC(=O)N[C@@H](CC(C)C)C(=O)N[C@@H](CC(C)C)C(=O)N[C@H](C=O)CCCNC(=N)N | 720 mg/kg
CCOP(=S)(OCC)SC1OCCOC1SP(=S)(OCC)OCC (stereo unspecified) | 20 mg/kg
CC(C)OC(=S)S | 1700 mg/kg and 1250 mg/kg
CCCCN=C(NCCCC)C(OCC)c1ccc(Cl)cc1 (stereo unspecified) | 220 mg/kg
CN1CCN(CCCN2c3ccccc3Sc3ccccc32)CC1 | 1380 mg/kg and 500 mg/kg
C=CCSCC1(C(C)CCC)C(=O)N=C(O)NC1=O (stereo unspecified) | 702 mg/kg
C=C(C)c1ccccc1 | 4900 mg/kg

SMILES | LD50
OC(c1ccccc1)(c1ccccc1)C1CCNCC1 | 984 mg/kg
C=CCSC(=S)SC(Cl)(Cl)Cl | 2180 mg/kg
CCOP(=S)(OCC)N1C(=O)c2ccccc2C1=O | 4930 mg/kg
COc1ccc(Oc2ccc(NC(=O)N(C)C)cc2)cc1 | 1000 mg/kg
C=C(C)CC#N | 540 mg/kg
CCOC(=O)N(C)CC1CCN(c2nc(N)c3cc(OC)c(OC)cc3n2)CC1 | 660 mg/kg
CCOP(=S)(OCC)OC(=CCl)c1ccc(Cl)cc1Cl | 10 mg/kg
CCC(CC)COCCC(=O)O | 3730 mg/kg
CC(C)OC(=O)COc1cc(Cl)c(Cl)cc1Cl | 495 mg/kg
C[Si](Cl)(Cl)CCCC#N | 650 mg/kg
CCOP(=S)(CCl)Sc1ccc(C)cc1 (stereo unspecified) | 336 mg/kg
ClC(Cl)(Cl)c1cccc(C(Cl)(Cl)Cl)c1 | 2920 mg/kg
CC(=O)Oc1c(C)ncc2c1COC(C(C)C)OC2 (stereo unspecified) | 2850 mg/kg
Cc1cc2[nH]c(C(F)(F)F)nc2cc1Cl | 55 mg/kg
O=C1C[C@@H]2OCC=C3CN4CC[C@]56c7ccccc7N1[C@H]5[C@H]2[C@H]3C[C@H]46 | 16.2 mg/kg
Nc1ccc2c(c1)Cc1cc(N)ccc1-2 | 1070 mg/kg
Cc1cc(CC(=O)O)n(C)c1C(=O)c1ccc(Cl)cc1 | 27 mg/kg
ClC1=C(Cl)[C@]2(Cl)[C@@H]3C[C@@H](Cl)[C@@H](Cl)[C@@H]3[C@@]1(Cl)C2(Cl)Cl (racemic) | 500 mg/kg
CCC(=O)OCCOc1ccccc1 | 4400 mg/kg
O=NN1CCCCCCCC1 | 566 mg/kg
Brc1nc(Br)c(Br)[nH]1 | 34 mg/kg
c1ccc([B-](c2ccccc2)(c2ccccc2)c2ccccc2)cc1 | 288 mg/kg
Nc1nc2cc(Cl)c(Br)cc2o1 | 140 mg/kg
CC(C)CCCCCOC(=O)CS | 348 mg/kg

SMILES | LD50
CNC(=O)Oc1cccc2sccc12 | 70 mg/kg
CN1CCN(C(=O)OC2c3nccnc3C(=O)N2c2ccc(Cl)cn2)CC1 (stereo unspecified) | 827 mg/kg
ClC1=C(Cl)C2(Cl)C(CBr)CC1(Cl)C2(Cl)Cl (stereo unspecified) | 12500 mg/kg
CCCC(Cc1ccccc1)N1CCCC1 (stereo unspecified) | 278 mg/kg and 157 mg/kg
CCCCOCCOCCOCOCCOCCOCCCC | 1750 mg/kg
CC(=O)OCN(C)N=O | 130 mg/kg
CN1CCC(=C2c3ccccc3CC(=O)c3sccc32)CC1 | 360 mg/kg
O=C1CC(=O)N(c2ccccc2)N1c1ccccc1 | 1000 mg/kg
CCOc1ccc(N(C)C(=O)C(C(C)O)N(C)C)cc1 (stereo unspecified) | 1350 mg/kg
CN(C)N=Nc1cccc(C(N)=O)c1 | 54 mg/kg
C[N+](C)(C)C | 77 mg/kg and 50 mg/kg
CC(C)c1cc(Oc2c(I)cc(CC(=O)O)cc2I)ccc1O | 5.4 mg/kg
O=C(O)CCCO | 9690 mg/kg
C=CCC(C(=O)NC(N)=O)C(C)C (stereo unspecified) | 1050 mg/kg
Clc1ccc(COC(Cn2ccnc2)c2ccc(Cl)cc2Cl)cc1 (stereo unspecified) | 668 mg/kg
Nc1ccc2c(c1)C(=O)NC(CCCl)O2 (stereo unspecified) | 1960 mg/kg
c1ccc2c(OCCN3CCCC3)ccnc2c1 | 280 mg/kg
CC[N+](CC)(CC)CCOC(=O)C(C1CCCC1)C1CCCC1 | 780 mg/kg
CCOC(=O)COC(=O)c1cc(Oc2ccc(C(F)(F)F)cc2Cl)ccc1[N+](=O)[O-] | 1480 mg/kg
CCCCCCCCCCOC(=O)C[N+](C)(C)CCSCC[N+](C)(C)CC(=O)OCCCCCCCCCC | 2660 mg/kg
C[Si](C)(C)CCC(=O)O | 3000 mg/kg
COP(=O)(SC(C)C)SC(C)C | 119 mg/kg
CC1CC(C)(O)CC(C(O)CC2CC(=O)NC(=O)C2)C1=O (stereo unspecified) | 3 mg/kg
CCC(C)c1cc([N+](=O)[O-])cc([N+](=O)[O-])c1OC(=O)SC (stereo unspecified) | 200 mg/kg

SMILES | LD50
COC(CN1CCN(CCC(O)c2ccccc2)CC1)c1ccccc1 (stereo unspecified) | 640 mg/kg
c1cc2c(c(NC3=NCCN3)c1)CCCC2 | 190 mg/kg
CN(C)CC1CCCCC1 | 1230 mg/kg
CC(O)CC=O (stereo unspecified) | 2180 mg/kg
C=CC(=O)OCC(C)OCC(C)OCC(C)OC(=O)C=C (stereo unspecified) | 6200 mg/kg
Fc1ccc(SCc2ccc(Cl)cc2)cc1 | 3000 mg/kg
OCCN(CCO)C1CCCCC1 | 2600 mg/kg
COP(N)(=S)Oc1ccc(C(C)(C)C)cc1Cl (stereo unspecified) | 820 mg/kg
Cc1cc(C)c(Cc2cc(C)c(C)cc2C)cc1C | 4500 mg/kg
CCCCOC(=O)N(C)SN(C)C(=O)Oc1cccc2c1OC(C)(C)C2 | 53 mg/kg
CC1CNC(C)CN1 (stereo unspecified) | 3160 mg/kg
O=C(CF)Nc1ccc(F)cc1 | 2 mg/kg
Clc1ccc(COC(Cn2ccnc2)c2ccc(Cl)cc2Cl)c(Cl)c1 (stereo unspecified) | 920 mg/kg and 550 mg/kg
COP(N)(=S)Oc1cc(Cl)c(Cl)cc1Cl (stereo unspecified) | 700 mg/kg
C/N=N/Nc1ccc(Br)cc1 | 467 mg/kg
C[N+]1(C)CCc2cc(Cl)ccc21 | 447 mg/kg
CC(=O)O[C@H]1C[C@@H]2CC[C@@]1(C)C2(C)C | 9050 mg/kg
O=C(CCCN1CC=C(n2c(=O)[nH]c3ccccc32)CC1)c1ccc(F)cc1 | 750 mg/kg
CCC(=O)OC(=O)CC | 2360 mg/kg
C[C@H]1CCCCN1N=O | 600 mg/kg
CCOC(=O)C(=O)NP(=O)(OC)SC (stereo unspecified) | 501 mg/kg
CCOP(=O)(OC=C(SCC)SCC)OCC | 15 mg/kg
Cc1ncc(CNC(=O)N(CCCl)N=O)c(N)n1 | 113 mg/kg
O=C(Nc1cccc(Cl)c1)OCC#CCOC(=O)Nc1cccc(Cl)c1 | 2040 mg/kg

SMILES | LD50
O=NN1CCCCCCC1 | 283 mg/kg
Nc1c(/N=N/c2ccc(-c3ccc(/N=N/c4cc(S(=O)(=O)O)c5ccccc5c4N)cc3)cc2)cc(S(=O)(=O)O)c2ccccc12 | 15200 mg/kg
CCOC(C1=NCCCN1)c1ccc(Cl)cc1 (stereo unspecified) | 875 mg/kg
CC1=CC=C(C(C)C)CC1 | 1680 mg/kg
COc1c2occc2cc2ccc(=O)oc12 | 791 mg/kg
Cc1ccc2[nH]c(=S)[nH]c2c1 | 340 mg/kg
CCC12CCCN3CCc4c(n(c5cc(Br)ccc45)C(O)(C(=O)OC)C1)C32 (stereo unspecified) | 1740 mg/kg
O=C(O)c1ccccc1Nc1cccc(C(F)(F)F)c1 | 249 mg/kg
CN(CO)C(=O)Oc1cccc2ccccc12 | 5360 mg/kg
CCCCCCCCCCCCCCCCCC1=NCCN1 | 3170 mg/kg and 4600 mg/kg and 1970 mg/kg
CCOC1CC2CN3CCc4c([nH]c5cc(OC)ccc45)C3CC2C(C(=O)OC)C1OC (stereo unspecified) | 187 mg/kg
CC(=O)OC1CC2(O)C(CCC3(C)C(c4ccc(=O)oc4)CCC32O)C2(C)CCC(O)C=C12 (stereo unspecified) | 4.2 mg/kg
CC(CN1c2ccccc2Sc2ccc(S(=O)(=O)N(C)C)cc21)N(C)C (stereo unspecified) | 1320 mg/kg
CCOC(=O)[C@H](CCc1ccccc1)N[C@@H](C)C(=O)N(CC(=O)O)C1Cc2ccccc2C1 | 8260 mg/kg
O=[N+]([O-])c1cc(Cl)cc(-c2cc(Cl)cc([N+](=O)[O-])c2O)c1O | 10 mg/kg
c1ccc2c(c1)ncn2P(n1cnc2ccccc21)n1cnc2ccccc21 | 2900 mg/kg
Clc1cccc(N2CCNCC2)n1 | 174 mg/kg
Cc1ncc([N+](=O)[O-])n1CCO | 3000 mg/kg
CCC(C)(C)/N=C(\NC#N)Nc1cccnc1 | 14 mg/kg
N#CC(Cl)(Cl)CCl | 200 mg/kg and 250 mg/kg
Cc1cc(Cl)ccc1O | 1190 mg/kg
CCCCCCCOCCOCCO | 2940 mg/kg
COC(=O)CC(=O)OC | 5330 mg/kg
C[N+](C)([O-])c1ccc(N=Nc2ccccc2)cc1 | 2200 mg/kg

SMILES | LD50
NC[C@@H]1O[C@H](O[C@H]2[C@@H](O)[C@H](O[C@@H]3[C@@H](O)[C@H](N)C[C@H](N)[C@H]3O[C@H]3O[C@H](CO)[C@@H](O)[C@H](O)[C@H]3N)O[C@@H]2CO)[C@H](N)[C@@H](O)[C@@H]1O | 21600 mg/kg
CCOc1cc(OCC)c(C(=O)CCC(=O)O)cc1OCC | 2450 mg/kg
C=C(C)C(=O)OCCOCCOCCOC(=O)C(=C)C | 10800 mg/kg
O=C1CC[C@@]2(O)[C@H]3Cc4ccc(O)c5c4[C@@]2(CCN3CC2CC2)[C@H]1O5 | 1450 mg/kg
OCCN(CCO)c1ccccc1 | 980 mg/kg
CCCCCCCCCCCCOS(=O)(=O)O | 1300 mg/kg
Cc1ccc(N=c2sccn2C)c(C)c1 | 725 mg/kg
CCCCOCCOCCOCCOCCOCCCC | 6500 mg/kg
CC(C)N1C(=O)N(c2ccccc2)CSC1=NC(C)(C)C | 2200 mg/kg
CCCCOCCOC(=O)c1ccccc1C(=O)OCCOCCCC | 8380 mg/kg
CN(C)CC/C=C1\c2ccccc2COc2ccccc21 | 147 mg/kg
CC(C)NC(=O)OCC(O)C1COc2ccccc2O1 (stereo unspecified) | 1500 mg/kg
O=c1c2nocc2c(-c2ccccc2)nn1-c1ccccc1 | 1000 mg/kg
CC(C)(O)C(C)(O)c1ccc(Cl)cc1 (stereo unspecified) | 832 mg/kg
CCOP(=S)(OCC)SC(CCl)N1C(=O)c2ccccc2C1=O (stereo unspecified) | 5 mg/kg
O=C1c2ccccc2C(=O)N1CC1CO1 (stereo unspecified) | 4700 mg/kg
CC1CC=CC2C3OC3(C)C(C)C3C(Cc4ccccc4)NC(=O)C23OC(=O)OC=CC(C)(O)C1=O (stereo unspecified) | 9.1 mg/kg
CCOC(=O)C(NCCNC(C(=O)OCC)c1ccccc1O)c1ccccc1O (stereo unspecified) | 800 mg/kg
FC(F)(F)c1cccc(-n2nc(OCCCN3CCCCCC3)c3cccnc32)c1 | 780 mg/kg
CCOC(C1=NCCCCN1)c1ccccc1 (stereo unspecified) | 375 mg/kg
CSCCC(OC(C)=O)C(=O)O (stereo unspecified) | 2340 mg/kg
